The compounds below were run against mouse TRPM3α2 (mTRPM3) ion channel (Mus musculus (Mouse), UniProt J9SQF3) (assay: TRPM3 ion channel driven Ca2+ uptake, Fluo-4 AM assay, mTRPM3alpha2 overexpressing flip-in HEK293 cells stimulated with pregnenolone sulfate). Details: PS 50 μM, cpds 200-299.
Type: cell-based
Summary of the method: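 Flip-in HEK293 cells loaded with Fluo-4 AM were added to plates holding compound plus 50 μM pregnenolone sulfate in Ca2+-containing Krebs buffer. Fluorescence (ex 485/em 535 nm) read directly after cell addition; % inhibition relative to PS-stimulated vehicle and positive-control inhibitor.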

mouse TRPM3α2 (mTRPM3) ion channel, sequence (J9SQF3 other isoform, or with tags, fused parts or gaps): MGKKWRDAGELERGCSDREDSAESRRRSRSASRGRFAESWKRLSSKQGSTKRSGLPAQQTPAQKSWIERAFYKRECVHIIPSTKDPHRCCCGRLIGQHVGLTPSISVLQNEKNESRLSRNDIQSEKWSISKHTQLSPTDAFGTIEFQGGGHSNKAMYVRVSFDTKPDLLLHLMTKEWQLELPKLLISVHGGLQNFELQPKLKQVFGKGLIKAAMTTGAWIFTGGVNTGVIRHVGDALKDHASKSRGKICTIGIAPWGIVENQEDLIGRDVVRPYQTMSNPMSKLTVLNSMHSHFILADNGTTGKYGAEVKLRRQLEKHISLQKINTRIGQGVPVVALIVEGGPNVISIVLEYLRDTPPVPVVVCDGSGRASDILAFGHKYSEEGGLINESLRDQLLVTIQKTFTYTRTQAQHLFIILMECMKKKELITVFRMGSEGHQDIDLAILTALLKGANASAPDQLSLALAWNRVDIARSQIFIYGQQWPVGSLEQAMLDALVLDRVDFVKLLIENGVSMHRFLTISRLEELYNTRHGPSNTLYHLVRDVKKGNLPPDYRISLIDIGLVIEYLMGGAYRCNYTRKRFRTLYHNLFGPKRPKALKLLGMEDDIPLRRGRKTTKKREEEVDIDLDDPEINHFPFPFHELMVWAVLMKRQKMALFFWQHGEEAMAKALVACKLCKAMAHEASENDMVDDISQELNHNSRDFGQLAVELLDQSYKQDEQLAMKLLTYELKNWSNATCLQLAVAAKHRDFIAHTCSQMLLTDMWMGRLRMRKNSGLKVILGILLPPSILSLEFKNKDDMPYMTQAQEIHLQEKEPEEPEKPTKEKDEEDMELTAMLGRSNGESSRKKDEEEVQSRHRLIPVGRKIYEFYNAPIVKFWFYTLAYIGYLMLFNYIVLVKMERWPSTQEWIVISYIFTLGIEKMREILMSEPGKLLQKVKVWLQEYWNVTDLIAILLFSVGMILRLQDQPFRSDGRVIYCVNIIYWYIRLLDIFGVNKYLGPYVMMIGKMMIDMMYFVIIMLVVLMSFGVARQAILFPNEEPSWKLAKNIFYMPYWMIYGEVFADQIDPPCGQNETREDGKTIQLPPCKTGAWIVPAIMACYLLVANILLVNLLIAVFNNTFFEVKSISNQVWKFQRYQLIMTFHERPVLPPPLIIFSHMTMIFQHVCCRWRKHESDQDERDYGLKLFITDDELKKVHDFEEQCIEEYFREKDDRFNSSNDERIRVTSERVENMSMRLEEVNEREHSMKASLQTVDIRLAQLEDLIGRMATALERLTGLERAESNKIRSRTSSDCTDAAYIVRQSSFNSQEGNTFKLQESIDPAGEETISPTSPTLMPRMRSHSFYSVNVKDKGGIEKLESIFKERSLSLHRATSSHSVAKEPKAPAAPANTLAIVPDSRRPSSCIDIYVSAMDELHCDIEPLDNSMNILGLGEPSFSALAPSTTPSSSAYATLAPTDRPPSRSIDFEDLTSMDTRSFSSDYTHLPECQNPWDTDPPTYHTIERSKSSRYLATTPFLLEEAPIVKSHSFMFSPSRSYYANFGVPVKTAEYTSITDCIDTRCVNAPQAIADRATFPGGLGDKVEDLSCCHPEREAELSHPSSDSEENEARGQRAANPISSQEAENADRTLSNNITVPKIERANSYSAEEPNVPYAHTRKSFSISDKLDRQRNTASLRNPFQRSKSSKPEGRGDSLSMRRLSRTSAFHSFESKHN

| Structure (SMILES) | IC50 |
| --- | --- |
| Cc1oc2ccc(OCC3COC3)cc2c1C(=O)N[C@@H](CO)C(N)=O [compound 292, (S)-N-(1-amino-3-hydroxy-1-oxopropan-2-yl)-2-methyl-5-(oxetan-3-ylmethoxy)benzofuran-3-carboxamide] | < 1 µM |
| Cc1oc2ccc(OCc3cccnn3)cc2c1C(=O)N[C@@H](CO)C(N)=O [compound 293, (S)-N-(1-amino-3-hydroxy-1-oxopropan-2-yl)-2-methyl-5-(pyridazin-3-ylmethoxy)benzofuran-3-carboxamide] | < 1 µM |
| Cc1oc2ccc(OCc3ccncn3)cc2c1C(=O)N[C@@H](CO)C(N)=O [compound 294, (S)-N-(1-amino-3-hydroxy-1-oxopropan-2-yl)-2-methyl-5-(pyrimidin-4-ylmethoxy)benzofuran-3-carboxamide] | < 1 µM |
| Cc1oc2ccc(OCc3ccnn3CC(F)F)cc2c1C(=O)N[C@@H](CO)C(N)=O [compound 295, (S)-N-(1-amino-3-hydroxy-1-oxopropan-2-yl)-5-((1-(2,2-difluoroethyl)-1H-pyrazol-5-yl)methoxy)-2-methylbenzofuran-3-carboxamide] | < 1 µM |
| Cc1oc2ccc(OCc3cccnc3OC(F)F)cc2c1C(=O)N[C@@H](CO)C(N)=O [compound 296, (S)-N-(1-amino-3-hydroxy-1-oxopropan-2-yl)-5-((2-(difluoromethoxy)pyridin-3-yl)methoxy)-2-methylbenzofuran-3-carboxamide] | < 1 µM |
| Cc1oc2ccc(OCc3cccnc3N(C)C)cc2c1C(=O)N[C@@H](CO)C(N)=O [compound 297, (S)-N-(1-amino-3-hydroxy-1-oxopropan-2-yl)-5-((2-(dimethylamino)pyridin-3-yl)methoxy)-2-methylbenzofuran-3-carboxamide] | < 1 µM |
| Cc1nc(C)c(COc2ccc3oc(C)c(C(=O)N[C@@H](CO)C(N)=O)c3c2)s1 [compound 298, (S)-N-(1-amino-3-hydroxy-1-oxopropan-2-yl)-5-((2,4-dimethylthiazol-5-yl)methoxy)-2-methylbenzofuran-3-carboxamide] | < 1 µM |

Continued, values first:

| IC50 | Structure (SMILES) |
| --- | --- |
| < 1 µM | Cc1nc(COc2ccc3oc(C)c(C(=O)N[C@@H](CO)C(N)=O)c3c2)cs1 [compound 285, (S)-N-(1-amino-3-hydroxy-1-oxopropan-2-yl)-2-methyl-5-((2-methylthiazol-4-yl)methoxy)benzofuran-3-carboxamide] |
| < 1 µM | Cc1oc2ccc(OCc3c[nH]nc3C(F)(F)F)cc2c1C(=O)N[C@@H](CO)C(N)=O [compound 286, (S)-N-(1-amino-3-hydroxy-1-oxopropan-2-yl)-2-methyl-5-((3-(trifluoromethyl)-1H-pyrazol-4-yl)methoxy)benzofuran-3-carboxamide] |
| < 1 µM | Cc1ccncc1COc1ccc2oc(C)c(C(=O)N[C@@H](CO)C(N)=O)c2c1 [compound 287] |
| < 1 µM | Cc1ncsc1COc1ccc2oc(C)c(C(=O)N[C@@H](CO)C(N)=O)c2c1 [compound 288, (S)-N-(1-amino-3-hydroxy-1-oxopropan-2-yl)-2-methyl-5-((4-methylthiazol-5-yl)methoxy)benzofuran-3-carboxamide] |
| < 1 µM | Cc1cc(COc2ccc3oc(C)c(C(=O)N[C@@H](CO)C(N)=O)c3c2)no1 [compound 289, (S)-N-(1-amino-3-hydroxy-1-oxopropan-2-yl)-2-methyl-5-((5-methylisoxazol-3-yl)methoxy)benzofuran-3-carboxamide] |
| < 1 µM | Cc1oc2ccc(OCc3ncsc3C)cc2c1C(=O)N[C@@H](CO)C(N)=O [compound 290, (S)-N-(1-amino-3-hydroxy-1-oxopropan-2-yl)-2-methyl-5-((5-methylthiazol-4-yl)methoxy)benzofuran-3-carboxamide] |
| < 1 µM | Cc1ccc(COc2ccc3oc(C)c(C(=O)N[C@@H](CO)C(N)=O)c3c2)cn1 [compound 291, (S)-N-(1-amino-3-hydroxy-1-oxopropan-2-yl)-2-methyl-5-((6-methylpyridin-3-yl)methoxy)benzofuran-3-carboxamide] |

From patent US12209081B2 (Katholieke Universiteit Leuven, priority 2020, dated 2025)
